Test results: patent US20260284009A1, “COMPOUNDS FOR NOS-RELATED CANCERS AND METHODS OF USE” (YISSUM RESEARCH DEVELOPMENT COMPANY OF THE HEBREW …, priority 2023, published 2026)

Experiments:
[1] = test system: SH-SY5Y cells; experiment: Nitrite levels (marker of NO levels) by Griess assay in SH-SY5Y cells; format: cell-based, human; details: 100 μM 7-NI or 20 nM siRNA (SEQ ID NO: 4), n=3
Experimental: In FIGS. 2A-2C, for quantitative analysis absorbance at 585 nm was normalized for total protein. Data are expressed as the mean±SEM. Statistical significance was determined using a One-way ANOVA followed by Fisher's LSD multiple comparison post hoc test. *P<0.05 and **P<0.01.
FIG. 2B: Quantitative analysis of nitrite levels (a marker of NO levels) measured by Griess assay for SH-SY5Y cells following administration of the control (“SH-SY5Y”) (n=3), 0.1% DMSO (“SH-SY5Y+NC”) (n=3), 100 μM 7-NI (“SH-SY5Y+7-NI”) (n=3), 20 nM siRNA (SEQ ID NO: 4) (“SH-SY5Y+si-nNOS”) (n=3).

[2] = test system: SH-SY5Y cells; experiment: Immunofluorescent staining of Syp and 3-Ntyr in SH-SY5Y cells; format: cell-based, human; details: immunofluorescence, 100 μM 7-NI or 20 nM siRNA
Experimental: In FIGS. 5A-5C, for quantitative analysis each group consisted of three independent sets of experiments run in triplicate. Data are presented as mean±SEM. Statistical significance was determined using a One-way ANOVA followed by Fisher's LSD multiple comparison post hoc test. **P<0.01 and ***P<0.001.
FIG. 5A: Representative immunofluorescent images of SH-SY5Y cells stained for Syp and 3-Ntyr following administration of the control (“SH-SY5Y”), 100 μM 7-NI (“SH-SY5Y+7-NI”), or 20 nM siRNA (SEQ ID NO: 4) (“SH-SY5Y+si-nNOS”). The scale bar is 10 μm.
FIG. 5B: Quantitative analysis of fluorescent intensity of Syp for the experiments of FIG. 5A.
FIG. 5C: Quantitative analysis of fluorescent intensity of 3-Ntyr for the experiments of FIG. 5A.

[3] = test system: SH-SY5Y cells; experiment: Confocal immunofluorescence of SH-SY5Y cells (3-Ntyr, Syp); format: cell-based, human; details: 7-NI
Experimental: Human neuroblastoma (“NB”) SH-SY5Y cells were obtained from the American Type Culture Collection (ATCC) and maintained in Dulbecco's modified Eagle's medium (DMEM) and Ham's F-12 (1:1) supplemented with 10% fetal bovine serum, 2 mM L-glutamine, and 100 U/ml penicillin-G/[…] streptomycin in the humidified atmosphere (37° C., 5% CO2). Cells were plated onto 25 cm^2 and 75 cm^2 at a density of […] respectively for Western blotting (WB) and 1×10^5 for immunofluorescence. The SH-SY5Y cells were treated with 100 μM 7-nitroindazole (7-NI) for 24 hr. This concentration was confirmed in the dose-response experiment (FIG. 1) using an MTT viability assay.
Cells cultured on coverslips coated with Poly-D-Lysine were washed three times with PBS and fixed in 4% paraformaldehyde for 15-20 min at room temperature. The fixed cells were washed three times with PBS and incubated in the presence of permeabilization buffer (PBS containing 0.1% Triton X-100) for 5 min at room temperature. […]

[4] = test system: U87-MG cells; experiment: Xenograft glioblastoma model, U87-MG cells in NSG mice: survival experiment; format: in vivo; details: 80 mg/kg or 120 mg/kg 7-NI intraperitoneally daily, vehicle-treated mice 35 days
Experimental: A xenograft glioblastoma model was generated by injecting 1.0×10^6 U87-MG cells (in PBS) into the subcutaneous tissue in the flank of NOD SCID Gamma (NSG) male (n=40) and female mice (n=5). Mice were 6-7 weeks old at time of injections. Mice were divided into groups and treatment was started when tumor volume reached 50 mm^3.
A survival experiment was performed in the mice, the treatment groups were saline (“Vehicle”) (n=10), 80 mg/kg 7-NI (n=10), and 120 mg/kg 7-NI (n=8). Treatments were administered intraperitoneally daily.

[5] = test system: U87-MG-xenografted mice; experiment: Survival of U87-MG-xenografted mice; format: in vivo; details: 80 or 120 mg/kg 7-NI daily, vs saline vehicle
[6] = test system: U87-MG human glioblastoma cell line; experiment: 3-Ntyr levels in U87-MG cells after treatment; format: cell-based; details: compared to the control, not significant (FIGS. 12C-12D)

SMILES | nitrite levels (a marker of NO levels) [1] | 3-Ntyr expression levels (fluorescent intensity) [2] | Syp expression levels (fluorescent intensity) [2] | fluorescence intensity of 3-Ntyr [3] | fluorescence intensity of Syp [3] | median survival [4] | survival [5] | 3-Ntyr levels ([6]; higher dose) | 3-Ntyr levels ([6]; lower dose)
O=[N+]([O-])c1cccc2cn[nH]c12 [7-NI, 7-nitroindazole] | significant decrease | significant decrease | significant decrease | significantly decreased | significantly decreased | ~ 65 days | increased survival | – | –
CC(=N)NCCCC[C@H](N)C(=O)O [L-NIL, N^6-(1-iminoethyl)-L-lysine] | – | – | – | – | – | – | – | reduced | slightly increased
